Reference: BigSolDB 2.1

Nc1nc2ccc(OC(F)(F)F)cc2s1
solubility (mole fraction)
Conditions | 278.15 K | 283.15 K | 288.15 K | 293.15 K | 298.15 K | 303.15 K | 308.15 K | 313.15 K | 318.15 K | 323.15 K
in acetone | 0.371 | 0.379 | 0.387 | 0.4 | 0.414 | 0.425 | 0.437 | 0.449 | 0.464 | 0.477
in ethanol | 0.179 | 0.188 | 0.198 | 0.212 | 0.223 | 0.236 | 0.255 | 0.273 | 0.294 | 0.308
in n-propanol | 0.179 | 0.189 | 0.202 | 0.215 | 0.23 | 0.249 | 0.267 | 0.287 | 0.312 | 0.333
